# Reference: patent US8906925B2, “Pyrido[4,3-B]indoles containing rigid moieties” (Medivation Technologies, Inc., priority 2008, dated 2014)
# Tests used:
# mice (e.g., C57Bl/6J) = assay: Amphetamine-induced hyperactivity, open field test; type: in vivo, mouse; details: amphetamine (4 mg/kg), 90 min. test
# Method: Male mice (various strains e.g., C57Bl/6J) from appropriate supplier (for example Jackson Laboratories, Bar Harbor, Me.) were used. Mice typically were received at 6-weeks of age. Mice were acclimated to the colony room for at least two weeks prior to testing. During the period of acclimation, mice were examined on a regular basis, handled, and weighed to assure adequate health and suitability and maintained on a 12 h/12 h light/dark cycle. The room temperature was maintained between 20 and 23° C. with a relative humidity maintained between 30% and 70%. Food and water were provided ad libitum for the duration of the study. In each test, animals were randomly assigned between treatment groups.
# The open field test (OF) was used to assess motor activity. […] Horizontal activity (distance traveled) and vertical activity (rearing) were measured from consecutive beam breaks.
# On the day of testing, animals were brought to the experimental room for at least 1 h acclimation prior to start of treatment. […] The time of administration of test compound to each animal was recorded. Baseline activity was recorded for […]. following which mice received amphetamine (4 mg/kg) or water and were placed back in the OF chambers for a 60-min. session. […]
# Data were analyzed by analysis of variance (ANOVA) followed by post-hoc comparisons with Fisher Tests when appropriate. […]
# [1] = target: human recombinant dopamine D2S receptor (Homo sapiens, UniProt P14416); assay: Dopamine D2S [35S]GTPγS functional assay (SPA, CHO membranes); type: biochemical; details: read-out: D2S GTPgS % Inhibition
# Method: To determine for agonist or antagonist activity of compounds of the invention in functional assays, human recombinant dopamine D2S receptor stably expressed in Chinese hamster ovary (CHO) cells (Gilliland S L and Alper R H. Naunyn-Schmiedeberg's Archives of Pharmacology. 361: 498, 2000) was used. Compounds of invention were pre-incubated with the membranes (0.05 mg/mL) and 3 µM GDP in modified HEPES buffer (20 mM HEPES, pH 7.4, 100 mM NaCl, 10 mM MgCl2, 1 mM DTT, 1 mM EDTA) for 20 min. and Scintillation Proximity Assay (SPA) beads were then added for another 60 min. at 30° C. The reaction was initiated by 0.3 nM [^35S]GTPγS for an additional 30 min. incubation period. […] Compounds were screened at […] or lower, using 0.4% DMSO as vehicle. Assay results are presented as the percent response of specific binding in Table 13.
# Sprague-Dawley rats = assay: Two-trial novel object recognition in scopolamine treated rats; type: in vivo, rat; details: 0.3 mg/kg
# Method: Ennaceur, A., and Delacour, J. (1988), Behav. Brain Res. 31:47-59. […] See, e.g., Scali, C., et al., (1994), Neurosci. Letts. […] 53:277-283.
# Male Sprague-Dawley rats between six and seven weeks old, weighing between 220-300 grams are obtained from Centre d'Elevage (Rue Janvier, B. P. 55, Le Genest-Saint-Isle 53940, France). The animals are housed in groups of 2 to 4 in polypropylene cages (with a floor area of 1032 cm^2) under standard conditions: at RT (22±2° C.), under a 12 h light/12 h dark cycle, with food and water provided ad libitum.
# The experimental arena is a square wooden box (60 cm×60 cm×40 cm) painted dark blue, with 15 cm×15 cm black squares under a clear plexiglass floor. The arena and objects placed inside the arena are cleaned with water between each trial to eliminate any odor trails left by rats. […]
# Novel object recognition test is comprised of two trials separated by an interval of 120 min. or 24 hours. […] The time required for each animal to complete 15 seconds of object exploration is determined, with a cut-off time of four min. […] Rats are placed back in the arena for three min., and exploration of both objects is determined. Locomotor activity of rats (number of times rats cross grid lines visible under the clear plexiglass floor) is scored for during T1 and T2. […]
# Recognition scores and % of good learners for compounds of the invention are determined.
# Chain of human recombinant dopamine D2S receptor (P14416 1-414 isoform P14416-2): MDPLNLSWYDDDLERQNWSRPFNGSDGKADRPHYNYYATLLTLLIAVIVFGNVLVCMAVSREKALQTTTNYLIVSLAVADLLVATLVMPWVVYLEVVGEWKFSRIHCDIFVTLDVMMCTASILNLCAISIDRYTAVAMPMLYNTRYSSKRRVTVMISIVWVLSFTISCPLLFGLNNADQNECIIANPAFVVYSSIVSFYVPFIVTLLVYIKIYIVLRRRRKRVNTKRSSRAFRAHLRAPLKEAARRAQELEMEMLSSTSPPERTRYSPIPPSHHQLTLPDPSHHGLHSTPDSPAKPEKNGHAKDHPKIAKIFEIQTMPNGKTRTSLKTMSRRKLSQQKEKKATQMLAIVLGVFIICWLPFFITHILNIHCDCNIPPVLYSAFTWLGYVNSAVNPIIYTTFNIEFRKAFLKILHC
inhibition at 0.001 µM ([1]; conc. 1 nM),inhibition at 0.003 µM ([1]; conc. 3 nM),inhibition at 0.01 µM ([1]; conc. 10 nM),inhibition at 0.03 µM ([1]; conc. 30 nM),inhibition at 0.1 µM ([1]; conc. 100 nM),SMILES,"Total Distance Traveled (center+periphery), ANOVA (mice (e.g., C57Bl/6J))","Total Rearing (center+periphery), ANOVA (mice (e.g., C57Bl/6J))",activity in object recognition in the presence of scopolamine (Sprague-Dawley rats)
15%,45%,56%,74%,91%,"C/C(=C\n1c2c(c3cc(Cl)ccc31)CN(C)CC2)c1ccc(F)cc1 [Compound 83, (E)-8-chloro-5-(2-(4-fluorophenyl)prop-1-enyl)-2,3,4,5-tetrahydro-2-methyl-1H-pyrido[4,3-b]indole]",significant treatment effect,significant treatment effect,
,,,,,"C/C(=C\n1c2c(c3cc(Cl)ccc31)CN(C)CC2)c1ccncc1 [Compound 90, (E)-8-chloro-2,3,4,5-tetrahydro-2-methyl-5-(2-(pyridin-4-yl)prop-1-enyl)-1H-pyrido[4,3-b]indole]",,,activity
